The text below walks through data of patent US9643977B2, “Necroptosis inhibitors and methods of use therefor” (President and Fellows of Harvard College, priority 2011, dated 2017).

For assay [1], the system named is TNFα production in J774 cells. Briefly: TNFα ELISA, J774 cells treated with LPS. It is filed as cell-based, murine. The conditions noted are these: 10 μM, J774 cells with 1 μg/ml LPS, cell lysate, FIG. 4. Here is the method: (§1) In the TNFα signaling pathway, cIAP1, the target of Smac mimetic compounds, interacts closely with another protein, Traf2. L929 cells were transfected with Traf2 siRNA, treated with 10 μM Nec-1 or 1.0 μg/ml anti-TNFα antibody for 48 hours and cell viability measured by ATP assay. […] This death was also dependent on TNFα production, as it was inhibited by treatment with a TNFα neutralizing antibody or with knockdown of TNFR1 (FIGS. 3A and 3B). […] One such treatment is lipopolysaccharide (LPS), a component of the bacterial outer membrane. […] However, treatment of such cells with 10 μM Nec-1 has no effect on TNFα production in this case (FIG. 4).
Background: In an ELISA, binding on a coated surface is turned into a signal by an enzyme label.

The test system of assay [2] is L929 cells. Briefly: Cell survival by CellTiter-Glo, L929 cells treated with CD154 and/or IFNγ. It is filed as cell-based. Particulars: 10 μM, 32 hrs, CD154 0.1 μg/ml, FIG. 5. The method, then: To test the involvement of CD40 in necroptosis, L929 cells were treated with CD154 (0.1 μg/ml), IFNγ (100 U/ml) and/or TNFα neutralizing antibody (1 μg/ml) alone or in combination and with or without Nec-1 (10 μM) for 32 hrs. Following treatment, cell survival was determined by CellTiter-Glo (Promega). As depicted in FIG. 5, the death of L929 cells induced by either the presence of either CD154 alone or by the presence of both CD154 and IFNγ was inhibited by Nec-1. Thus, RIP1 kinase selectively mediates intracellular signaling downstream of CD40 stimulation
For orientation: Cellular ATP, detected with luciferase, serves as a proxy for viable cell number.

The subject of assay [3] is microglia primary cultures. The assay can be described thus: Cell survival by CellTiter-Glo, microglia primary cultures treated with Aβ42. It is filed as cell-based. The conditions noted are these: Aβ42 200 nM, FIG. 10C. Here is the method: (§2) The levels of TNFα mRNA were measured by quantitative PCR. B) Microglia primary cultures were incubated for 30 minutes with or without 10 μM Nec-1 prior to being treated with Aβ42 (200 nM). TNFα secretion was measured by ELISA. The data correspond to the mean±SD (N=3). C) Cell survival of microglia primary cultures treated with Aβ42 (200 nM) for indicated times with and without Nec1 was measured by CellTiter-Glo® assay. Error bars represent the mean of two different experiments.
(§3) The role played by RIP1 in the induction of TNFα production by amyloid-β in microglial cells was investigated.

For assay [4], the system named is TNFα production in J774 cells. The assay can be described thus: TNFα ELISA, J774 cells treated with zVAD.fmk (cell lysate and supernatant). It is filed as cell-based, murine. Particulars: FIG. 1. Here is the method: The role of RIP1 kinase in the regulation of TNFα induction was investigated. zVAD.fmk is a caspase inhibitor that induces TNFα expression in various cell types. Murine macrophage J774 cells were treated with 20 μM zVAD.fmk and 10 μM of necrostatin and RIP1 inhibitor Nec-1 for the various periods of time. Cell lysates were extracted and analyzed by TNFα specific ELISA. As depicted in FIG. 1, treatment with zVAD.fmk induces an upregulation in TNFα protein levels as measured by ELISA in the cell lysate.

The subject of assay [5] is TNFα secretion by BV-2 cells. The assay can be described thus: TNFα ELISA, BV-2 cells pretreated with IFNγ and treated with CD40L. The assay is classed as cell-based. The conditions noted are these: 100 U/ml IFNγ 20 hours, 0.1 μg/ml CD40L 4 or 8 hours, FIG. 13B. The method, then:
(§4) A, L929 cells were treated with 0.2 μg/ml CD40L, 100 U/ml IFNγ, and/or 1 μg/ml TNFα neutralizing antibody and then treated with 10 μM Nec-1 (right bar) or a DMSO control (left bar) for 24 hours. Viability was measure by ATP luminescence assay. B, BV-2 cells were pretreated with 100 U/ml IFNγ for 20 hours, and treated with 0.1 μg/ml CD40L for 4 or 8 hours. TNFα secretion was measured by ELISA.
To confirm the role of RIP1 in CD40L-induced TNFα production, BV-2 cells were pretreated with IFNγ and CD40L to induce TNFα production and then exposed to Nec-1.

In assay [6] the test system is TNFα secretion by splenic macrophages. The assay can be described thus: TNFα ELISA, splenic macrophages stimulated by CD154 and IFNγ. It is filed as cell-based, C57BL/6 mouse. The conditions noted are these: 10 μM, pretreated 1 hour, then 24 hours 1 μg/ml CD154 and 100 U/ml IFNγ, FIG. 6. Here is the method: To further explore the role of RIP1 kinase in mediating CD40 signaling, the effect of necrostatins on the production of TNFα by primary macrophages stimulated by CD154 was tested. Splenocytes isolated from a C57BL/6 mouse were cultured for 10 days in RPMI media with 10% FBS and 50 μM 2-mercaptoethanol. The attached cells were harvested as splenic macrophages. The macrophages were pretreated for 1 hour with 10 μ[…] Nec-1, 10 μM Nec-21, 10 μM Nec-29, or 1 μM Nec-12, then treated for 24 hours with 1 μg/ml recombinant CD154 (CD40L, R&D Systems) and/or 100 U/ml IFNγ as. TNFα secretion in the cell culture supernatant was analyzed by ELISA assay. As depicted in FIG. 6, the production of TNFα in splenic macrophages stimulated by CD154 in the presence of IFNγ was inhibited by Nec-1 as well as by the three other necrostatins tested, Nec-12, Nec-21 and Nec-29. These experiments indicate that RIP1 is involved in mediating TNFα production downstream of CD40 activation.

The subject of assay [7] is TNFα secretion by microglia primary cultures. The assay can be described thus: TNFα ELISA, microglia primary cultures treated with Aβ42. The assay is classed as cell-based. Particulars: 10 μM, 30 minutes before Aβ42 200 nM, FIG. 10B. The method, then:
as §2, §3

Assay [8] deals with TNFα production in BV2 cells. Briefly: TNFα mRNA by quantitative PCR, BV2 cells treated with Aβ42. Particulars: 10 μM, 30 minutes before Aβ42 200 nM, FIG. 10A. It is filed as cell-based. Here is the method: as §2, §3
The test system of assay [9] is TNFα production in L929 cells. The assay can be described thus: TNFα ELISA on cell lysates, L929 cells treated with SM-164. It is filed as cell-based. The method, then: (§5) Smac mimetic compounds are IAP antagonists that induce the production of TNFα. Smac mimetic compounds induce the autoubiquitination and degradation of cIAP1. […] This cell death was inhibited by treatment with 10 μM Nec-1, or with 0.2 μg/ml or 1.0 μg/ml of TNFα neutralizing antibody (FIG. 2A).

Assay [10] relates to L929 cells. The assay can be described thus: Cell viability by ATP assay, L929 cells transfected with Traf2 siRNA. The assay is classed as cell-based. Particulars: 10 μM, 48 hours, FIG. 3A. Here is the method:
as §1

Assay [11] has as its system L929 cells. The assay can be described thus: Viability by ATP luminescence assay, L929 cells treated with CD40L and IFNγ. It is filed as cell-based. The conditions noted are these: 10 μM, 24 hours, 0.2 μg/ml CD40L, 100 U/ml IFNγ, FIG. 13A. The method, then:
as §4
The role of RIP1 in CD40L induced TNFα production was investigated.

Assay [12] relates to L929 cells. The assay can be described thus: Cell viability by ATP assay, L929 cells treated with Smac mimetic SM-164. The assay is classed as cell-based. Here is the method: as §5

Where a SMILES comes first, the peptide text is derived from it. The star is where a group is joined. Cbz = O=C(OCc1ccccc1)*; CH2F = FC*

For `CN1C(=O)C(Cc2c[nH]c3ccccc23)NC1=S` (stereo not shown) [Nec-1], the “effect on LPS-induced TNFα production” value in assay [1] is “no effect”. Also, the “inhibition of cell death induced by CD154 alone” value in assay [2] is listed as “inhibited”. Besides, the “inhibition of cell death induced by both CD154 and IFNγ” value in [2] (IFNγ 100 U/ml) is “inhibited”. Further, the “effect on survival of microglia primary cells” value in assay [3] is on record as “minor protective effect”. For the same compound, in assay [4] (10 μM co-treatment with 20 μM zVAD.fmk), the “inhibition of zVAD.fmk-induced production of TNFα” value is “almost completely inhibits”. The “inhibition of CD40L-induced TNFα production” value in assay [5] is “significantly inhibited”. In assay [6], the “inhibition of TNFα production stimulated by CD154 in the presence of IFNγ” value is given as “inhibited”. Moreover, the “levels of TNFα (secretion) after Aβ42 exposure” value in [7] is given as “reduced levels of TNFα”. The “levels of TNFα (mRNA) after Aβ42 exposure” value in [8] is “reduced levels of TNFα”. Also, the “inhibition of SM-164-induced TNFα production” value in assay [9] (co-treatment, FIG. 2B) was “completely inhibited”. In addition, the “inhibition of cell death induced by loss of Traf2” value in assay [10] is listed as “completely inhibit”. The “viability of cells cultured in IFNγ and CD40L” value in assay [11] is “largely restored”. In assay [12] (10 μM, L929 cells with 100 nM SM-164, FIG. 2A), the “inhibition of SM-164-induced cell death” value is recorded as “inhibited”.

As for `CN[C@@H](C)C(=O)N[C@H]1CCCC[C@H]2CC[C@@H](C(=O)N[C@@H](c3ccccc3)c3cn(CCCCc4ccc(CCCCn5cc([C@@H](NC(=O)[C@@H]6CC[C@@H]7CCCC[C@H](NC(=O)[C@H](C)NC)C(=O)N76)c6ccccc6)nn5)cc4)nn3)N2C1=O` [SM-164, reference compound], the “TNFα production after treatment” value in [9] (SM-164 treatment, ELISA on cell lysates) was “induced an increase”. Further, in assay [12] (100 nM, L929 cells, ATP assay), the “cell death induced by treatment” value is “undergo cell death”.

On to `COC(=O)C[C@H](NC(=O)[C@H](C)NC(=O)[C@@H](NC(=O)OCc1ccccc1)C(C)C)C(=O)CF` [zVAD.fmk, reference compound] (Cbz-Val-Ala-Asp(OMe)-CH2F), for which the “TNFα protein levels after treatment” value in assay [4] (20 μM zVAD.fmk, ELISA in cell lysate) is on record as “upregulation”.
